Test systems include CMS; MV4-11; M07e; CMK; CHRF288-11; ML-2; U937; MOLM-13.
What all share (set-up): species or system AML cell lines (8); Primary HTS, single concentration about 10 uM, Cell Titer Glo viability; log10 luminescence, per cent inhibition relative to cycloheximide control
Common to all, as to details: 72 h, relative to cycloheximide control, log10 luminescence, inhibitor
In general terms: ATP-based viability assays read luminescence as a measure of living cells.

Consider 15 compounds from publication PMC6522510 (Nature Communications, 2019).

Counter-ions that a name gives are not always drawn. Like-named read-outs stand apart in the source and are kept apart here.

On to `N#Cc1ccc(NCCNCC(=O)N2CCC[C@H]2C#N)nc1` [SJ000772405-1, NVP DPP 728 DIHYDROCHLORIDE], for which the CMS %inh in the assay on CMS is 0.6231%. For the same compound, in the assay on MV4-11, the MV4-11 %inh was -0.757%. Besides, the M07e %inh in the assay on M07e is listed as -0.0114%. Besides, the CMK %inh in the assay with CMK is reported as -0.003306%. For the same compound, the CHRF288-11 %inh in the assay with CHRF288-11 was -4.67%. For the same compound, the ML-2 %inh with ML-2 is -1.409%. Moreover, in the assay on U937, the U937 %inh is given as -2.969%. In addition, in the assay on MOLM-13, the MOLM-13 %inh was -0.2952%.
With `NC(=O)c1cc(-c2ccc(Cl)cc2)cc(-c2ccc(S(N)(=O)=O)cc2)c1N` [SJ000773162-1, IKK INHIBITOR XII], the CMS %inh in the assay on CMS worked out at 0.8646%. In addition, in the assay on MV4-11, the MV4-11 %inh is recorded as 6.438%. Also, the M07e %inh in the assay on M07e was -0.482%. In addition, the CMK %inh in the assay with CMK was 7.074%. In addition, the CHRF288-11 %inh with CHRF288-11 came out at 5.412%. The ML-2 %inh in the assay on ML-2 turned out to be 2.717%. For the same compound, in the assay on U937, the U937 %inh amounted to 5.575%. Further, the MOLM-13 %inh in the assay on MOLM-13 was 3.294%.
On to `CC1=Nc2ccc(Cl)cc2S(=O)(=O)N1` [SJ000285438-7, DIAZOXIDE], for which the CMS %inh with CMS was -4.011%. For the same compound, in the assay on MV4-11, the MV4-11 %inh is reported as -7.128%. The M07e %inh in the assay on M07e is reported as -1.23%. In the assay with CMK, the CMK %inh is -0.09563%. Also, the CHRF288-11 %inh in the assay with CHRF288-11 is reported as 3.174%. Also, in the assay on ML-2, the ML-2 %inh is reported as -2.212%. The U937 %inh with U937 came to 2.608%. Also, the MOLM-13 %inh in the assay with MOLM-13 is on record as 13.73%.
`OCc1ccc(-c2nc(-c3ccc4c(c3)OCO4)c(-c3ccccn3)[nH]2)cc1` [SJ000573254-1, FH98924-116A1]: the CMS %inh in the assay with CMS is reported as 0.5352%. Moreover, in the assay on MV4-11, the MV4-11 %inh is reported as -0.8385%. In addition, the M07e %inh in the assay on M07e was determined as 0.7981%. In addition, the CMK %inh in the assay on CMK was -1.373%. Besides, the CHRF288-11 %inh in the assay on CHRF288-11 is reported as -3.015%. For the same compound, in the assay with ML-2, the ML-2 %inh is 2.365%. In addition, in the assay on U937, the U937 %inh is recorded as -3.528%. The MOLM-13 %inh in the assay on MOLM-13 is listed as 0.3005%.
With `CO[C@@H]1[C@H](OC(=O)/C=C/C=C/C=C/C=C/C(=O)O)CC[C@]2(CO2)[C@H]1[C@@]1(C)O[C@@H]1CC=C(C)C` [SJ000556696-1, FUMAGILLIN], in the assay on CMS (CMS %inh, 10 µM), the CMS %inh came to 10.64%. In the assay with MV4-11 (MV4-11 %inh, 10 µM), the MV4-11 %inh turned out to be 13.12%. Besides, the M07e %inh in the assay on M07e (M07e %inh, 10 µM) is 2.083%. The CMK %inh in the assay on CMK (CMK %inh, 10 µM) is reported as -0.5821%. Further, in the assay with CHRF288-11 (CHRF288-11 %inh, 10 µM), the CHRF288-11 %inh amounted to 12.42%. In addition, in the assay with ML-2 (ML-2 %inh, 10 µM), the ML-2 %inh was found to be 2.951%. Moreover, in the assay on U937 (U937 %inh, 10 µM), the U937 %inh is 19.23%. In the assay with MOLM-13 (MOLM-13 %inh, 10 µM), the MOLM-13 %inh is recorded as 6.124%.
In the case of `Fc1cccc(COc2ccc(Nc3ncnc4cc(-c5ccc[nH]5)sc34)cc2Cl)c1` [SJ000573252-1, U16950/26/1], the CMS %inh in the assay on CMS was determined as 15.37%. The MV4-11 %inh in the assay with MV4-11 is 9.963%. In the assay with M07e, the M07e %inh was found to be 5.221%. The CMK %inh with CMK came to 115.2%. Besides, the CHRF288-11 %inh with CHRF288-11 is reported as 1.14%. Further, the ML-2 %inh with ML-2 worked out at 17.93%. Also, in the assay with U937, the U937 %inh is 11.09%. The MOLM-13 %inh in the assay on MOLM-13 came out at 14.24%.
Take `Cn1cc(C2=C(c3cn(CCCCCN)c4ccccc34)C(=O)NC2=O)c2ccccc21` [SJ000581165-1]: the CMS %inh in the assay with CMS is given as 0.9818%. For the same compound, the MV4-11 %inh with MV4-11 came to 1.637%. The M07e %inh in the assay with M07e turned out to be 4.895%. Also, in the assay on CMK, the CMK %inh was 0.6124%. For the same compound, the CHRF288-11 %inh with CHRF288-11 was 2.441%. For the same compound, in the assay with ML-2, the ML-2 %inh came to 1.663%. The U937 %inh with U937 was found to be 0.4783%. For the same compound, the MOLM-13 %inh with MOLM-13 was 2.139%.
As for `COc1cccc(-n2ncc3c(N/N=C/c4ccc(F)cc4)ncnc32)c1` [SJ000573219-1, U18028/188/1], the CMS %inh with CMS worked out at 1.318%. The MV4-11 %inh with MV4-11 is -2.52%. In addition, the M07e %inh with M07e was determined as 4.179%. Further, in the assay with CMK, the CMK %inh was -2.994%. Moreover, the CHRF288-11 %inh in the assay with CHRF288-11 is -1.076%. Further, the ML-2 %inh in the assay with ML-2 is given as 1.489%. Moreover, the U937 %inh with U937 was -0.8072%. For the same compound, the MOLM-13 %inh in the assay on MOLM-13 was 0.1437%.
As for `COc1cccc(-n2ncc3c(N/N=C/c4ccncc4)ncnc32)c1` [SJ000573037-1, U25132/28/11], the CMS %inh in the assay on CMS amounted to 4.136%. Moreover, in the assay on MV4-11, the MV4-11 %inh is 1.553%. Moreover, the M07e %inh in the assay with M07e is -4.147%. For the same compound, the CMK %inh with CMK was -6.6%. In addition, the CHRF288-11 %inh in the assay with CHRF288-11 worked out at 6.081%. In the assay with ML-2, the ML-2 %inh came out at 0.6096%. Moreover, in the assay with U937, the U937 %inh was -2.89%. Besides, in the assay with MOLM-13, the MOLM-13 %inh was -2.08%.
Regarding `Cc1[nH]n(-c2ccccc2)c(=O)c1C(=O)c1ccccc1` [SJ000581048-1], the CMS %inh in the assay on CMS is 1.313%. In the assay with MV4-11, the MV4-11 %inh is listed as -2.724%. Moreover, the M07e %inh with M07e is -0.3361%. Also, the CMK %inh in the assay on CMK is -9.373%. Also, the CHRF288-11 %inh in the assay on CHRF288-11 came out at 3.222%. Besides, the ML-2 %inh in the assay on ML-2 amounted to 0.679%. For the same compound, the U937 %inh in the assay on U937 is reported as -0.7202%. The MOLM-13 %inh in the assay with MOLM-13 is reported as -1.767%.
Take `CC(=O)OC/C=C(C)/C=C/C=C(C)/C=C/C1=C(C)CCCC1(C)C` [SJ000285933-3, RETINYL ACETATE]: the CMS %inh with CMS came to 2.535%. Further, the MV4-11 %inh in the assay on MV4-11 stood at 3.526%. In addition, the M07e %inh in the assay on M07e came out at 2.591%. The CMK %inh with CMK is 13.65%. The CHRF288-11 %inh with CHRF288-11 turned out to be 13.53%. Further, in the assay on ML-2, the ML-2 %inh is recorded as 2.843%. In addition, in the assay on U937, the U937 %inh came to 8.926%. In the assay on MOLM-13, the MOLM-13 %inh turned out to be 0.103%.
Turning to `CCOC(=O)C1=C(N)Oc2ccc(Br)cc2[C@H]1[C@H](C#N)C(=O)OCC` [SJ000574273-1, HA14-1], in the assay on CMS, the CMS %inh amounted to 0.956%. Also, the MV4-11 %inh with MV4-11 is listed as 14.02%. Moreover, the M07e %inh in the assay on M07e was determined as 0.5476%. For the same compound, the CMK %inh with CMK stood at 4.094%. The CHRF288-11 %inh in the assay on CHRF288-11 is on record as -0.6917%. In the assay on ML-2, the ML-2 %inh is -0.1514%. For the same compound, in the assay on U937, the U937 %inh is 6.381%. In addition, the MOLM-13 %inh with MOLM-13 stood at 2.194%.
Consider `COc1ccc2ncnc(Nc3ccc(OCc4ccccc4)cc3)c2c1` [SJ000573210-1, 0142W 95C*D], for which, in the assay on CMS, the CMS %inh was found to be 0.3657%. Further, the MV4-11 %inh in the assay with MV4-11 is 1.39%. In addition, the M07e %inh in the assay on M07e is reported as -3.821%. In addition, in the assay with CMK, the CMK %inh is 1.162%. The CHRF288-11 %inh in the assay with CHRF288-11 is reported as -3.911%. In addition, the ML-2 %inh in the assay with ML-2 is -0.6695%. The U937 %inh with U937 is -0.1655%. Moreover, the MOLM-13 %inh with MOLM-13 is reported as 13.25%.
Take `O=C1Nc2ccc(-c3cccnc3)cc2C1=Cc1cc(Br)c(O)c(Br)c1` [SJ000573213-1, R10489/16/2]: in the assay with CMS, the CMS %inh is on record as -1.986%. In the assay on MV4-11, the MV4-11 %inh is given as -0.07867%. Further, the M07e %inh in the assay on M07e was 2.589%. The CMK %inh in the assay with CMK is 0.4308%. In addition, in the assay with CHRF288-11, the CHRF288-11 %inh was 4.693%. For the same compound, the ML-2 %inh with ML-2 came out at 4.287%. Besides, the U937 %inh with U937 is -1.775%. Further, the MOLM-13 %inh with MOLM-13 was determined as 4.678%.
On to `CCC[C@@H]1CC2=CC(=O)CC[C@]2(C)[C@H]2CC[C@@]3(C)[C@@H](CC[C@@]3(O)CCC(=O)O)[C@H]12` [SJ000546509-1, RU 28318], for which the CMS %inh in the assay on CMS is reported as 2.41%. For the same compound, the MV4-11 %inh in the assay with MV4-11 stood at 0.6325%. Further, the M07e %inh with M07e is listed as 2.635%. In the assay with CMK, the CMK %inh came out at 5.542%. Also, the CHRF288-11 %inh in the assay with CHRF288-11 is listed as 5.992%. The ML-2 %inh with ML-2 was 3.121%. Besides, the U937 %inh with U937 was -0.6477%. In addition, in the assay with MOLM-13, the MOLM-13 %inh came to 5.695%.
